Data taken from ChEMBL document CHEMBL4665686, “Dehydrohispanolone Derivatives Attenuate the Inflammatory Response through the Modulation of Inflammasome Activation” (J Nat Prod, 2020).
The source made the active and inactive calls. No cut-off for these calls is given here.

Assays:
J774.A1 = experiment: Cytotoxicity against mouse J774.A1 cells assessed as cell viability at 10 to 20 uM after 24 hrs by MTT assay; assay type: cell-based; conditions: j774.a1, 24 h, dose 10-20 µM
[1] = biological target: NACHT, LRR and PYD domains-containing protein 3 (Mus musculus) (UniProt Q8R4B8); experiment: Inhibition of NLRP3 in mouse J774A.1 cells assessed as inhibition of LPS-induced NO production at 20 uM measured after 24 hrs by Griess reagent; assay type: cell-based; conditions: J774.A1
[2] = biological target: NACHT, LRR and PYD domains-containing protein 3 (Mus musculus) (UniProt Q8R4B8); experiment: Inhibition of NLRP3 in mouse J774A.1 cells assessed as inhibition of LPS and nigerecin-induced IL-1beta production at 20 uM pre-stimulated with LPS for 5 hrs followed by compound treatment for 30 mins and then nigericin addition for 45 mins by ELISA; assay type: cell-based; conditions: J774.A1, time 75.0 min
[3] = biological target: NACHT, LRR and PYD domains-containing protein 3 (Mus musculus, UniProt Q8R4B8); experiment: Inhibition of NLRP3 in mouse J774A.1 cells assessed as inhibition of LPS and nigerecin-induced IL-1beta production pre-stimulated with LPS for 5 hrs followed by compound treatment for 30 mins and then nigericin addition for 45 mins by ELISA; assay type: cell-based, J774.A1
[4] = biological target: NACHT, LRR and PYD domains-containing protein 3 (Mus musculus) (UniProt Q8R4B8); experiment: Inhibition of NLRP3 in mouse J774A.1 cells assessed as inhibition of LPS and nigericin-induced cleaved IL-1beta production at 20 uM pre-stimulated with LPS for 5 hrs before compound addition with ATP for 45 mins by Western blot analysis; assay type: cell-based; conditions: J774.A1
[5] = biological target: NACHT, LRR and PYD domains-containing protein 3 (Mus musculus) (UniProt Q8R4B8); experiment: Inhibition of NLRP3 in mouse J774A.1 cells assessed as inhibition of LPS and ATP-induced IL-1beta production at 20 uM pre-stimulated with LPS for 5 hrs followed by compound treatment for 30 mins and then ATP addition for 45 mins by ELISA; assay type: cell-based; conditions: J774.A1, time 75.0 min
[6] = biological target: NACHT, LRR and PYD domains-containing protein 3 (Mus musculus) (UniProt Q8R4B8); experiment: Inhibition of NLRP3 in mouse J774A.1 cells assessed as inhibition of LPS and MSU-induced IL-1beta production at 20 uM pre-stimulated with LPS for 5 hrs followed by compound treatment for 30 mins and then MSU addition for 24 hrs by ELISA; assay type: cell-based; conditions: J774.A1, time 24.5 hrs
[7] = biological target: NACHT, LRR and PYD domains-containing protein 3 (Mus musculus) (UniProt Q8R4B8); conditions: J774.A1, dose 300.0 nM, time 45.0 min

NACHT, LRR and PYD domains-containing protein 3 (Mus musculus), sequence (Q8R4B8 whole entry, the tested form may be a part): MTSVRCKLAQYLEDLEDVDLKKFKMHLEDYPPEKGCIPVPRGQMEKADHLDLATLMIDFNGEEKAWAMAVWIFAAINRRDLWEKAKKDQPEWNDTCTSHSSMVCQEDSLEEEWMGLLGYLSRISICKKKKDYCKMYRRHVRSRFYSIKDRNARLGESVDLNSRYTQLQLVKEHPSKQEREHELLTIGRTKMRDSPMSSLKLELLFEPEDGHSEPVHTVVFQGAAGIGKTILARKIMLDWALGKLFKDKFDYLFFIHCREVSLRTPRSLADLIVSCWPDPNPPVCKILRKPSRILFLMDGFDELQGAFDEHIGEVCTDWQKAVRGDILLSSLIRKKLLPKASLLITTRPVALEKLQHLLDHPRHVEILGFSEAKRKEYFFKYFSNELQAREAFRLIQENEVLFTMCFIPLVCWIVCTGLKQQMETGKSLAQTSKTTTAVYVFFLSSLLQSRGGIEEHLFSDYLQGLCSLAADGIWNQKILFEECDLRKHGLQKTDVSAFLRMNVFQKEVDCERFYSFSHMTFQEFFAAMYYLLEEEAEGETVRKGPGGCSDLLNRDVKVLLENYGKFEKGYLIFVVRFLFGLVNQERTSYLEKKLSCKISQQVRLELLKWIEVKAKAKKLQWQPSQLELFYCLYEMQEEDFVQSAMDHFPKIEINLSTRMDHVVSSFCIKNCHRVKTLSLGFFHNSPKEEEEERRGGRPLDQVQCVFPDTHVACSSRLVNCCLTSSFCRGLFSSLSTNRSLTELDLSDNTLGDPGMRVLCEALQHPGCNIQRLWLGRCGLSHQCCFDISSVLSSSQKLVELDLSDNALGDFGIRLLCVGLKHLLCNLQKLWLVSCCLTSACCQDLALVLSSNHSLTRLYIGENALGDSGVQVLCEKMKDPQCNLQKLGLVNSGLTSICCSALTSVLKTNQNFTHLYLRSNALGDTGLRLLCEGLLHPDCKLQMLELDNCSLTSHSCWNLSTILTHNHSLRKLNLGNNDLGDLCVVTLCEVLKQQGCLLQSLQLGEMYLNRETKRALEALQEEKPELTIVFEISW
NACHT, LRR and PYD domains-containing protein 3, sequence (Q8R4B8 whole entry, the tested form may be a part): as above

Structure (SMILES) | Activity (J774.A1) | further results
CC1=C(CCc2ccoc2)[C@@]2(C)CCCC(C)(C)[C@@H]2C/C1=N/OC(=O)N(C)C | Non-Toxic | –
CC1=C(CCc2ccoc2)[C@@]2(C)CCCC(C)(C)[C@@H]2CC1=O | Toxic | –
CC1=C(CCc2ccoc2)[C@@]2(C)CCCC(C)(C)[C@@H]2C/C1=N/OS(=O)(=O)c1ccc(C)cc1 | Non-Toxic | –
CC1=C(CCc2ccoc2)[C@@]2(C)CCCC(C)(C)[C@@H]2C/C1=N/O | Non-Toxic | –
CC1=C(CCC2CCOC2)[C@@]2(C)CCCC(C)(C)[C@@H]2CC1=O (some centres undefined) | Non-Toxic | inhibition [1]: > 50%; inhibition [2]: Active
CC1=C(CCc2ccoc2)[C@@]2(C)CCCC(C)(C)[C@@H]2C/C1=N/OC(=O)c1cccc(C(=O)O/N=C2/C[C@H]3C(C)(C)CCC[C@]3(C)C(CCc3ccoc3)=C2C)n1 | Non-Toxic | –
CCCCCCCCCCCC(=O)O/N=C1/C[C@H]2C(C)(C)CCC[C@]2(C)C(CCc2ccoc2)=C1C | Non-Toxic | inhibition [2]: Active; IC50 [3]: 18.7 µM; inhibition [4]: Active; inhibition [5]: Active; inhibition [6]: Active
CC1=C(CCc2ccoc2)[C@@]2(C)CCCC(C)(C)[C@@H]2C/C1=N/OC(=O)CCCCC(=O)O/N=C1/C[C@H]2C(C)(C)CCC[C@]2(C)C(CCc2ccoc2)=C1C | Non-Toxic | –
CC1=C(CCc2ccoc2)[C@@]2(C)CCCC(C)(C)[C@@H]2C/C1=N/OC(=O)c1ccc(C(=O)O/N=C2/C[C@H]3C(C)(C)CCC[C@]3(C)C(CCc3ccoc3)=C2C)cc1 | Non-Toxic | inhibition [2]: Active; IC50 [3]: 13.8 µM; inhibition [4]: Active; inhibition [5]: Active; inhibition [6]: Active
CC1=C(CCc2ccoc2)[C@@]2(C)CCCC(C)(C)[C@@H]2C/C1=N/OC(=O)c1ccc(Br)cc1 | Non-Toxic | inhibition [1]: > 50%
CC(=O)O/N=C1/C[C@H]2C(C)(C)CCC[C@]2(C)C(CCc2ccoc2)=C1C | Non-Toxic | –
CC1=C(CCc2ccoc2)[C@@]2(C)CCCC(C)(C)[C@@H]2CC(=O)N1 | Non-Toxic | –
CC1=C(CCc2ccoc2)[C@@]2(C)CCCC(C)(C)[C@@H]2C/C1=N/OC(=O)c1ccc(C(=O)O)cc1 | Toxic | –
CO/N=C1/C[C@H]2C(C)(C)CCC[C@]2(C)C(CCc2ccoc2)=C1C | Non-Toxic | –
CC1=C(CCc2ccoc2)[C@@]2(C)CCCC(C)(C)[C@@H]2C[C@@H]1O | Toxic | –
CO[C@H]1C[C@H]2C(C)(C)CCC[C@]2(C)C(CCc2ccoc2)=C1C | Non-Toxic | –
CC(C)(O)c1coc(S(=O)(=O)NC(=O)Nc2c3c(cc4c2CCC4)CCC3)c1 | – | inhibition [7]: Active
CC1=C(CCc2ccoc2)[C@@]2(C)CCCC(C)(C)[C@@H]2CC1N (some centres undefined) | Toxic | –
CCC1=C(Cc2ccoc2)C(=O)[C@@]2(C)CCCC(C)(C)[C@@H]2C1 | Non-Toxic | inhibition [1]: > 50%; inhibition [2]: Active
